# Source: patent US5795907A, “Gastin and CCK receptor ligands” (James Black Foundation Limited, priority 1994, dated 1998)
# Assays:
# CCKA = molecular target: T1, CCKA (Cavia porcellus, UniProt Q63931); test: CCKA radioligand binding assay in guinea-pig pancreas membranes ([125I]-CCK8(S)); conditions: PD134,308 present, 150 minutes at 21±3°; for Ki: read-out: CCKA pKi (converted)
# T1 construct: The pancreatata were homogenised in 40 ml ice-cold HEPES buffer using a polytron; from tissue; host or cells: pancreas membranes of male Dunkin Hartley guinea-pigs
# T1 sequence (Q63931 1-430): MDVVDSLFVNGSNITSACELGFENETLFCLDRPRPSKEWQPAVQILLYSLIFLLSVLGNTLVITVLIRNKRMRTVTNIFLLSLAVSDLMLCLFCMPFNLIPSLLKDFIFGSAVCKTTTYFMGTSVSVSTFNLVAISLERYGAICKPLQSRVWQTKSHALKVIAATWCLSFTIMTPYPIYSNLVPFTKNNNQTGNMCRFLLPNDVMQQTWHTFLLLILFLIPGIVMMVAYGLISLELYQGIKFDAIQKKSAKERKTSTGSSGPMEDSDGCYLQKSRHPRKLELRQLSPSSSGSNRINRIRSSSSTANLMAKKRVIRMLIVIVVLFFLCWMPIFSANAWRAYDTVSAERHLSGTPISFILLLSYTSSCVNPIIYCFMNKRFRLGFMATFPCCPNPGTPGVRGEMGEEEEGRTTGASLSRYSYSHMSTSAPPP
# How it was run: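 Male guinea-pig pancreas membranes (1 mg/ml wet tissue in HEPES pH 7.2, suspension containing 0.375 μM PD134,308) were incubated 150 min at 21±3° with [125I]-CCK8(S) ([…] added solution) and competitor. Non-specific binding used 100 nM L-364,718 (added solution). Bound radioligand was measured by GF/B filtration and gamma counting.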
# gastrin = molecular target: T2, gastrin (Rattus norvegicus, UniProt P30553); test: gastrin antagonist activity in an immature rat stomach assay (pentagastrin-stimulated acid secretion); conditions: cumulative pentagastrin dose-response curves after 60 min with drug; for Kb: read-out: Gastrin pKB (converted)
# T2 construct: The stomach was lowered into a jacketed organ bath containing 40 ml of buffered solution; from tissue; host or cells: isolated perfused whole stomach of immature rats (ca. 21 days old)
# T2 sequence (P30553 1-452): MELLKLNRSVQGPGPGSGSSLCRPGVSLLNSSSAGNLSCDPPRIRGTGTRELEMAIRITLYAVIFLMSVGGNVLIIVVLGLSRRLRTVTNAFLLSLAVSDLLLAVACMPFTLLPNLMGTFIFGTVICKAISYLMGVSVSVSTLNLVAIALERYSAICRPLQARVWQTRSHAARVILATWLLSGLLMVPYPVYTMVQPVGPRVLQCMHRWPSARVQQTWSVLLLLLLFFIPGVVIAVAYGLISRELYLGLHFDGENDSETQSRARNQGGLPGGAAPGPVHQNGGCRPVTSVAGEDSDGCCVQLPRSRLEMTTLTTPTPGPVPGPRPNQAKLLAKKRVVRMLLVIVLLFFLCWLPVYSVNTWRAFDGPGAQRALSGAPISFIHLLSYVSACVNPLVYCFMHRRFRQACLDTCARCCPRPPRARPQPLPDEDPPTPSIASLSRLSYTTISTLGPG
# How it was run: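 Isolated lumen-perfused immature rat stomach (33-50 g, ca. 21 days) in 37° organ bath with 3×10^-8 M 5-methylfurmethide; acid secretion read by pH electrode in perfusate. Compound added to serosal bath after 120 min stabilisation; cumulative pentagastrin dose-response curves begun 60 min later and analysed by the Black et al. method.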
# CCKB receptor = molecular target: T3, CCKB receptor (Mus musculus, UniProt P56481); test: CCKB receptor radioligand binding assay in mouse cortical membranes ([125I]-CCK8S); conditions: [125I]-CCK8S 200 pM, 150 min at 21±3°; for Ki: read-out: CCKB pKi (converted)
# T3 construct: The cortex was dissected, weighed and homogenised in 40ml ice-cold buffer; tissue Charles River (supplier of the CD1 mice); host or cells: cerebral cortex membranes of male CD1 mice
# T3 sequence (P56481 1-453): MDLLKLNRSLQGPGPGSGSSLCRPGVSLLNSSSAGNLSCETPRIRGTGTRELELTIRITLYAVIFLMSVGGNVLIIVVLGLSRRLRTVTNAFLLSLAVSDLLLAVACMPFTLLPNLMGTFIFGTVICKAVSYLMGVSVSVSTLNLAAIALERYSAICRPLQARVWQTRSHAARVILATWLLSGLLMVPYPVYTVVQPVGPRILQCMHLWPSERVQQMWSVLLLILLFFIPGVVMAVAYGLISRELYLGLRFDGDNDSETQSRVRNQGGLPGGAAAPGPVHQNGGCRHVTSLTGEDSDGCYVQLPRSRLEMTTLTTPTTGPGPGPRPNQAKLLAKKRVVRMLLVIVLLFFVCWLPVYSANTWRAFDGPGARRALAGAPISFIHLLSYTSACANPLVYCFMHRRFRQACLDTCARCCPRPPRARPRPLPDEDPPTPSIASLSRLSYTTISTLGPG
# How it was run: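 Cortical membranes from male CD1 mice in HEPES buffer (pH 7.2; NaCl, KCl, MgCl2, EDTA, bacitracin) were incubated with competing compound and [125I]-CCK8S (added as a 200 pM solution) for 150 min at 21±3°. Non-specific binding was defined with L-365,260. Bound tracer was separated by GF/B filtration and counted by gamma counting.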
Ki (CCKA) [nM],Kb (gastrin) [nM],Ki (CCKB receptor) [nM],CCKA pKi (CCKA),Gastrin pKB (gastrin),CCKB pKi (CCKB receptor),Compound
5010,100,398,,,,"C[C@H](NC(=O)c1cc2[nH]cnc2cc1C(=O)NCC12CC3CC(CC(C3)C1)C2)C(=O)Nc1cc(C(=O)O)cc(C(=O)O)c1 [Example 71, 5-(1S-(3,5-dicarboxyphenylaminocarbonyl)-ethylaminocarbonyl)-6-(1-adamantanemethylaminocarbonyl)-benzimidazole]"
1580,398,1580,,,,"COC(=O)[C@H]1CCCN1C(=O)c1cc2ccccc2cc1C(=O)NCC12CC3CC(CC(C3)C1)C2 [Example 7, 2-(2R-methoxycarbonylpyrrolidino-carbonyl)-3-(1-adamantanemethylaminocarbonyl)-naphthalene]"
> 10000,126,631,,,,"O=C(O)CNC(=O)[C@H]1CCCN1C(=O)c1cc2[nH]cnc2cc1C(=O)NCC12CC3CC(CC(C3)C1)C2 [Example 76, 5-(2R-carboxymethylaminocarbonylpyrrolidino-carbonyl)-6-(1-adamantanemethylaminocarbonyl)-benzimidazole]"
6310,158,1000,,,,"C[C@@H](NC(=O)c1cc2ccccc2cc1C(=O)NCC12CC3CC(CC(C3)C1)C2)C(=O)O [Example 5, 2-(1R-carboxyethylamino-carbonyl)-3-(1-adamantanemethylaminocarbonyl)-naphthalene]"
,,,4.9,6.8,6.4,5-(1S-(3-methoxycarbonyl-5-pivaloyloxymethyloxycarbonyl-phenylaminocarbonyl)-2-phenylethylaminocarbonyl)-6-(1-adamantanemethylaminocarbonyl)-indole and regioisomer with substituents at positions 5 and 6 reversed [Example 39]
6310,2,3.98,,,,"O=C(O)c1cc(NC(=O)[C@@H](Cc2ccccc2)NC(=O)c2cc3[nH]cnc3cc2C(=O)NCC23CC4CC(CC(C4)C2)C3)cc(C(=O)O)c1 [Example 61, 5-(1R-(3,5-dicarboxyphenylaminocarbonyl)-2-phenylethylaminocarbonyl)-6-(1-adamantanemethylaminocarbonyl)-benzimidazole]"
6310,20,2510,,,,"CC(C)(C)C(=O)OCOC(=O)c1cc(NC(=O)[C@H](Cc2ccccc2)NC(=O)c2cc3cc[nH]c3cc2C(=O)NCC23CC4CC(CC(C4)C2)C3)cc(C(=O)OCOC(=O)C(C)(C)C)c1 [Example 33, 5-(1S-(3,5-dipivaloyloxymethyloxycarbonylphenylaminocarbonyl)-2-phenylethylaminocarbonyl)-6-(1-adamantanemethylaminocarbonyl)-indole]"
,,,5.6,8.2,7.6,"Nc1cccc2cc(C(=O)N[C@@H](Cc3ccccc3)C(=O)Nc3cc(C(=O)O)cc(C(=O)O)c3)c(C(=O)NCC34CC5CC(CC(C5)C3)C4)cc12 [Example 115, 2-(1S-(3,5-dicarboxyphenylaminocarbonyl)-2-phenylethylaminocarbonyl)-3-(1-adamantanemethylaminocarbonyl)-5-aminonaphthalene]"
,,,5.6,7.7,8.1,"O=C(NCC12CC3CC(CC(C3)C1)C2)c1cc2[nH]ccc2cc1C(=O)N[C@@H](Cc1ccccc1)C(=O)Nc1cc(NS(=O)(=O)C(F)(F)F)cc(NS(=O)(=O)C(F)(F)F)c1 [Example 93, 5-(1S-(3,5-di-trifluoromethylsulphonylaminophenylaminocarbonyl)-2-phenylethylaminocarbonyl)-6-(1-adamantanemethylaminocarbonyl)-indole]"
,,,5.5,6.2,5.6,"C[C@@H](NC(=O)C[C@@H]1CCCN1C(=O)c1cc2ccccc2cc1C(=O)NCC12CC3CC(CC(C3)C1)C2)C(=O)O [Example 16, 2-(2S-(1R-carboxyethylaminocarbonylmethyl)-pyrrolidinocarbonyl)-3-(1-adamantanemethylaminocarbonyl)-naphthalene]"
